Data on four compounds can be found in patent publication US20080070952A1, “Inhibition or Treatment of Dyskinesia” (PROXIMAGEN LTD.,, priority 2005, published 2008).

This experiment has as its system L-DOPA primed MPTP treated animals (common marmosets). In words: L-DOPA induced motor activity, motor disability and dyskinesia (chorea, dystonia) in L-DOPA primed MPTP treated marmosets. Type of experiment: in vivo, Callithrix Jacchus. The conditions noted are these: same protocol as Examples 1-8; NOS inhibitors s.c., Vinyl L-NIO 6 mg/kg, 7-NI 20 mg/kg, L-NIO dose not given. As for the experimental part:
In the following procedure, all NOS inhibitors (nNOSi) were administered subcutaneously. All other drugs with the exception of 7-nitroindazole were dissolved in deionised water or for oral administration dissolved in deionised water containing 10% sucrose and were administered orally. 7-nitroindazole was dissolved in a 30:70 v/v in water and DMSO. In experiments using ropinirole, animals were pre-treated with a single oral dose of domperidone (5 mg·kg^−1) as an anti-emetic, 30 min before. Carbidopa and domperidone were given as suspension in deionised water and 10% sucrose.
Adult common marmosets of either sex (Callithrix Jacchus; n=6), weighing between 310 to 380 g were used in this study. Marmosets were housed either in pairs or individually at a temperature of 25±1_ C with 50% relative humidity on a 12-hour light-dark cycle. Animals were fed once daily on a diet of fresh fruit, nuts, Mazuri food pellets, and a supplement of vitamin D3 and had free access to water. On experimental days, the animals were fed following completion of behavioural testing.
Marmosets were treated with 1-methyl-4-phenyl-1,2,3,6-tetrahydropyridine hydrochloride (2.0 mg·kg^−1 subcutaneously; MPTP-HCl; Research Biochemicals International; dissolved in 0.9% sterile saline) daily for 5 consecutive days. This treatment regimen induces a persistent and stable syndrome of akinesia, bradykinesia, rigidity, postural abnormality, incoordination and postural tremor (Jenner and Marsden, 1986; Pearce et al., 1995). Animals were hand fed on a cocktail of Mazuri marmoset jelly, dried milk and pureed bananas until body weight had returned towards pre-treatment levels.
Eight weeks following MPTP-treatment, all animals (n=6) were treated for 30 to 40 days with 12.5 mg·kg^−1 L-DOPA methyl ester (Sigma) plus 12.5 mg·kg^−1 carbidopa (Merck Sharp & Dohme) by oral gavage on a daily basis. Carbidopa was administered 30 to 45 min prior to L-DOPA treatment (Pearce et al., 1995). When animals became dyskinetic, daily dosing with a combination of L-DOPA/carbidopa was changed to a once a week treatment. At this point and on, once a week L-DOPA/carbidopa treatment produced similar level of dyskinesia to that produced at the end of the daily priming period. […]
Motor Activity: Motor activity was measured in test cages equipped with an array of 8 infra red photo sensors (perspex fronted aluminium cages, 50×60×70 cm), The number of beam interruptions due to movement was counted and summed in bins of 10 minute interval using an analogue to digital converter attached to an Intel-based PC. Motor activity was measured over a period of 6 hours and expressed both as time course measuring the number of beam interruption occurring in 10 min time segments, or as the total number of beam interruptions over the test period. […]
As to `N=C(N)SCCc1cccc(CCSC(=N)N)c1` [1,3 PB-ITU, S,S′-1,3-Phenylene-bis(1,2-ethanediyl)-bis-isothiourea], the L-Dopa induced dyskinesia entry is recorded as “did not reduce”. The same measure for `O=[N+]([O-])c1cccc2cn[nH]c12` [7-NI, 7-nitroindazole]: “reduced”. Take `N=C(N)SCCN` [S-(2-aminoethyl)-ITU, S-(2-aminoethyl)-isothiourea]: the L-Dopa induced dyskinesia result is on record as “did not reduce”.

Regarding `C=CCC(=N)NCCC[C@H](N)C(=O)O` [Vinyl L-NIO, L-N5-(1-imino-3-butenyl)-ornithine], the L-Dopa induced dyskinesia result is “reduced”.
